From US6307056A, “4-aryloxindoles” (Hoffman-La Roche Inc., priority 1999, dated 2001)
Counter-ions that a name gives are not always drawn.

biological target: rat SAPK (isoform b) (Rattus norvegicus, UniProt P49187); assay: SAPK FlashPlate Assay (c-Jun phosphorylation); type: biochemical; details: purified rat SAPK activated by MEKK-1/MKK4, GST-c-Jun substrate, 33P-ATP, 30 minutes at 37° C.
Procedure: "IC50 " refers to the concentration of a particular 4-aryloxindole or 4-heteroaryloxidole required to inhibit 50% of the SAPK protein kinase catalytic activity. IC50 can be measured, inter alia, using the assay described herein in Example 66.
Human JNK is highly homologous to rat SAPK. To measure the inhibitory activity of test compounds, the compounds were tested in the rat SAPK assay.
For the SAPK assay, purified GST-c-Jun (a chimeric protein containing c-Jun, a natural substrate of JNK) was coated on 96 well FlashPlates (New England Nuclear, Boston, Mass.). Purified rat SAPK (isoform b, Kyriakis et al. supra) was preincubated with preparations containing MEKK-1 and MKK4 for 30 minutes at 37° C. in assay buffer containing 25 mM HEPES, pH 7.5, 150 mM NaCl, 20 mM MgCl2, 2 mM DTT, 0.001% Tween 20, 1 mM ATP freshly added. In the preincubation step, MEKK-1 phosphorylates and activates MKK4, which in turn phosphorylates and activates SAPK. The activated SAPK was then added to the c-Jun coated FlashPlates along with ^33 P-ATP ([…] per reaction) and test compounds. The plates were incubated for 30 minutes at 37° C., then washed with PBS, 0.01% Tween 20, and counted in the Topcount scintillation counter (Packard Instrument Co., Downers Grove, Ill.). Dilutions of compounds were tested in duplicate in each assay. The percent inhibition of c-Jun phosphorylation (a measure of inhibition of SAPK activity) was determined by the following formula: [formula]
where "test compound" refers to the average counts per minute of the test duplicates, "nonspecific" refers to the average counts per minute when no SAPK was added, and "total" refers to the average counts per minute when no compound was added.

rat SAPK (isoform b), sequence (P49187 whole entry, canonical isoform): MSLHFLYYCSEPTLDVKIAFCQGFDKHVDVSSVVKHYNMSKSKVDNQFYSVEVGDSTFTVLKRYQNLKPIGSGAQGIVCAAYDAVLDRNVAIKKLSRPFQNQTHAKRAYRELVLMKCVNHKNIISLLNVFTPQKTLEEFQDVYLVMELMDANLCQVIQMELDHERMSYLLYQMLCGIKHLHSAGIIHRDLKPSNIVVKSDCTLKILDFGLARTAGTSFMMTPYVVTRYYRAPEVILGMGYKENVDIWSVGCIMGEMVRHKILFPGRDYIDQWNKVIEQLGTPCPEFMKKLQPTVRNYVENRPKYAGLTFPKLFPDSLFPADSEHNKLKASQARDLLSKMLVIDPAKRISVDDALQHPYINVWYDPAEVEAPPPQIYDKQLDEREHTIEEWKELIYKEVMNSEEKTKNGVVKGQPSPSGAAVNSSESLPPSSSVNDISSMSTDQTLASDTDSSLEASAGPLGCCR

Row | SMILES | IC50 [µM]
1 | Nc1cccc(-c2cccc3c2/C(=C/c2ccc[nH]2)C(=O)N3)c1 [Compound C, (Z)-4-(3-Aminophenyl)-1,3-dihydro-3-[(1H-pyrrol-2-yl)methylene]-2H-indol-2-one] | < 0.15
2 | COc1cc[nH]c1/C=C1\C(=O)Nc2cccc(-c3cccc(N)c3)c21 [EE, (Z)-4-(3-Aminophenyl)-1,3-dihydro-3-[(3-methoxy-1H-pyrrol-2-yl)methylene]-2H-indol-2-one] | < 0.15
3 | COc1cc[nH]c1/C=C1\C(=O)Nc2ccc([N+](=O)[O-])c(-c3ccc(O)cc3)c21 [JJ, (Z)-1,3-Dihydro-4-(4-hydroxyphenyl)-3-[(3-methoxy-1H-pyrrol-2-yl)methylene]-5-nitro-2H-indol-2-one] | < 0.15
4 | COc1cc[nH]c1/C=C1\C(=O)Nc2ccc([N+](=O)[O-])c(-c3ccccc3)c21 [KK, (Z)-1,3-Dihydro-3-[(3-methoxy-1H-pyrrol-2-yl)methylene]-5-nitro-4-phenyl-2H-indol-2-one] | < 0.15
5 | COc1cc[nH]c1/C=C1\C(=O)Nc2ccc(NC(=O)Cc3cccs3)c(-c3ccccc3)c21 [LL, (Z)-N-[2,3-Dihydro-3-[(3-methoxy-1H-pyrrol-2-yl)methylene]-2-oxo-4-phenyl-1H-indol-5-yl]-2-thiopheneacetamide] | < 0.15
6 | COc1cc[nH]c1/C=C1\C(=O)Nc2ccc(N)c(-c3ccccc3)c21 [PP, (Z)-5-Amino-1,3-dihydro-3-[(3-methoxy-1H-pyrrol-2-yl)methylene]-4-phenyl-2H-indol-2-one] | < 0.15
7 | COC(=O)c1ccc(-c2c(N)ccc3c2/C(=C/c2[nH]ccc2OC)C(=O)N3)cc1 [SS, (Z)-4-[5-Amino-2,3-dihydro-3-[(3-methoxy-1H-pyrrol-2-yl)methylene]-2-oxo-1H-indol-4-yl]-benzoic acid methyl ester] | < 0.15
8 | COc1cc[nH]c1/C=C1\C(=O)Nc2cccc(-c3ccc4cc[nH]c4c3)c21 [UU, (Z)-1,3-Dihydro-4-(6-indolyl)-3-[(3-methoxy-1H-pyrrol-2-yl)methylone]-2H-indol-2-one] | < 0.15
9 | COc1cc[nH]c1/C=C1\C(=O)Nc2ccc(NC(=O)Cc3cccs3)c(-c3ccc4cc[nH]c4c3)c21 [VV, (Z)-N-[2,3-Dihydro-4-(6-indolyl)-3-[(3-methoxy-1H-pyrrol-2-yl)methylene]-2-oxo-1H-indol-5-yl]-2-thiopheneacetamide] | < 0.15

Continued, values first:

Row | IC50 [µM] | SMILES
10 | < 0.15 | COc1cc[nH]c1/C=C1\C(=O)Nc2cccc(-c3ccccc3)c21 [GG, (Z)-1,3-Dihydro-4-phenyl-3-[(3-methoxy-1H-pyrrol-2-yl)methylene]-2H-indol-2-one]
11 | < 0.15 | COc1cc[nH]c1/C=C1\C(=O)Nc2cccc(-c3ccc4[nH]ccc4c3)c21 [MM, (Z)-1,3-Dihydro-4-(5-indolyl)-3-[(3-methoxy-1H-pyrrol-2-yl)methylene]-2H-indol-2-one]
12 | < 0.15 | COc1cc[nH]c1/C=C1\C(=O)Nc2ccc(N)c(-c3ccc(O)cc3)c21 [NN, (Z)-5-Amino-1,3-dihydro-4-(4-hydroxyphenyl)-3-[(3-methoxy-1H-pyrrol-2-yl)methylene]-2H-indol-2-one]
13 | < 0.15 | COc1cc[nH]c1/C=C1\C(=O)Nc2ccc(NC(=O)Cc3cccs3)c(-c3ccc(O)cc3)c21 [OO, (Z)-N-[2,3-Dihydro-4-(4-hydroxyphenyl)-3-[(3-methoxy-1H-pyrrol-2-yl)methylene]-2-oxo-1H-indol-5-yl]-2-thiopheneacetamide]
14 | < 0.15 | COc1cc[nH]c1/C=C1\C(=O)Nc2ccc(NC(=O)Cc3cccs3)c(-c3ccc4[nH]ccc4c3)c21 [QQ, (Z)-N-[2,3-dihydro-4-(5-indolyl)-3-[(3-methoxy-1H-pyrrol-2-yl)methylene]-2-oxo-1H-indol-5-yl]-2-thiopheneacetamide]
15 | < 0.15 | COC(=O)c1ccc(-c2c([N+](=O)[O-])ccc3c2/C(=C/c2[nH]ccc2OC)C(=O)N3)cc1 [RR, (Z)-4-[2,3-Dihydro-3-[(3-methoxy-1H-pyrrol-2-yl)methylene]-5-nitro-2oxo-1H-indol-4-yl]-benzoic acid methyl ester]
16 | < 0.15 | COc1cc[nH]c1/C=C1\C(=O)Nc2cccc(-c3cccc4[nH]ccc34)c21 [TT, (Z)-1,3-Dihydro-4-(4-indolyl)-3-[(3-methoxy-1H-pyrrol-2-yl)methylene]-2H-indol-2-one]
17 | < 0.15 | COC(=O)c1ccc(-c2c(NC(=O)Cc3cccs3)ccc3c2/C(=C/c2[nH]ccc2OC)C(=O)N3)cc1 [WW, (Z)-4-[2,3-Dihydro-3-[(3-methoxy-1H-pyrrol-2-yl)methylene]-2-oxo-5-[(2-thienylacetyl)amino]-1H-indol-4-yl]-benzoic Acid Methyl Ester]
18 | < 0.15 | COc1cc[nH]c1/C=C1\C(=O)Nc2ccc(NC(=O)Cc3cccs3)c(-c3ccc(C(=O)O)cc3)c21 [XX, (Z)-4-[2,3-Dihydro-3-[(3-methoxy-1H-pyrrol-2-yl)methylene]-2-oxo-5-[(2-thienylacetyl)amino]-1H-indol-4-yl]-benzoic acid]

tested on: TNF-α; assay: U937 Cell-Based Assay, TNF-α ELISA after LPS stimulation; details: Homo sapiens, U-937, read-out: IC50 in U837 Cells TNF, PMA-differentiated U937 cells, 1 hour preincubation, 24 hours, supernatant ELISA
Procedure: (§1) U937 Cell-Based Assay The U937 cells, a human monocyte/macrophage cell line, was obtained from the ATTC and grown in the recommended medium. These cells when stimulated with lipopolysaccharide (LPS) release TNF, another inflammatory mediator implicated in the JNK pathway ([…] et al., supra) and IL-6. In this assay the ability of a test compound to block TNF expression is evaluated. The U937 cells were suspension cells which when stimulated with phorbol myristate acetate (PMA) (Sigma, St. Louis, Mo.) became adherent. After PMA stimulation the cells were washed in cell culture medium and plated at 1×10^5 cells/well in 96 well plates. The following day the test compounds and dexamethasone control (Sigma, St. Louis, Mo.) were added to the cells for 1 hour of preincubation. Then the cells were stimulated with LPS (Sigma, St. Louis, Mo.). After an additional 24 hours of incubation the supernatants were removed and assayed for TNF-α and IL-6 by ELISA. The IL-6 ELISA was run as described previously for the MG63 assay. […] The intensity of the color (measured at 450 nm) is proportional to the amount of TNF-α or IL-6 produced by the U937 cells upon exposure to LPS and the test compounds. […] IC50 values for each test compound were determined from the linear regression of a plot of the logarithm of the concentration of compound versus amount of TNF-α or IL-6 secreted. […]

Row | IC50 [pM] | SMILES
19 | 1.17e+06 | Nc1cccc(-c2cccc3c2/C(=C/c2ccc[nH]2)C(=O)N3)c1 [D, (Z)-4-(3-Aminophenyl)-1,3-dihydro-3-[(1H-pyrrol-2-yl)methylene]-2H-indol-2-one hydrochloride salt]
20 | 1.35e+06 | COC(=O)c1ccc(-c2c(NC(=O)Cc3cccs3)ccc3c2/C(=C/c2[nH]ccc2OC)C(=O)N3)cc1 [WW, (Z)-4-[2,3-Dihydro-3-[(3-methoxy-1H-pyrrol-2-yl)methylene]-2-oxo-5-[(2-thienylacetyl)amino]-1H-indol-4-yl]-benzoic Acid Methyl Ester]

tested on: IL-6; assay: U937 Cell-Based Assay, IL-6 ELISA after LPS stimulation; details: Homo sapiens, U-937, PMA-differentiated U937 cells, 1 hour preincubation, 24 hours, supernatant ELISA, read-out: IC50 (pM) in U837 Cells IL6
Procedure: as §1

Row | IC50 [pM] | SMILES
21 | 6.33e+06 | Nc1cccc(-c2cccc3c2/C(=C/c2ccc[nH]2)C(=O)N3)c1 [D, (Z)-4-(3-Aminophenyl)-1,3-dihydro-3-[(1H-pyrrol-2-yl)methylene]-2H-indol-2-one hydrochloride salt]
22 | 7.8e+06 | COC(=O)c1ccc(-c2c(NC(=O)Cc3cccs3)ccc3c2/C(=C/c2[nH]ccc2OC)C(=O)N3)cc1 [WW, (Z)-4-[2,3-Dihydro-3-[(3-methoxy-1H-pyrrol-2-yl)methylene]-2-oxo-5-[(2-thienylacetyl)amino]-1H-indol-4-yl]-benzoic Acid Methyl Ester]
